# Columns and labels:
# Test in all cases: ITC
# Conditions in all cases: 135 mM KCl, 15 mM NaCl, 10 mM MgCl2; 50 mM TrisCl pH 8.0, 37 °C
# [1] = tested on: metE aptamer U157A (RNA, riboswitch) GGCAUUUUCUCUUAUCGAGAGUUGGGCGAGGGAUUGGCCUUUUGACCCCAACAGCAACCGACCGUAAUACCAUUGUGAAAUGGGGCGCACUGCUUUUCGCGCCGAGACUGAUGUCUCAUAAGGCACGGAGCUAAUUCCAUCAGAUUGUGUCUGAGAGAUGAGAGAGGCAGUG
# [2] = tested on: B. subtilis metE wild type aptamer domain (RNA, riboswitch) GGCAUUUUCUCUUAUCGAGAGUUGGGCGAGGGAUUGGCCUUUUGACCCCAACAGCAACCGACCGUAAUACCAUUGUGAAAUGGGGCGCACUGCUUUUCGCGCCGAGACUGAUGUCUCAUAAGGCACGGUGCUAAUUCCAUCAGAUUGUGUCUGAGAGAUGAGAGAGGCAGUG
# [3] = tested on: metE aptamer A89G/Δ153 (RNA, riboswitch) GGCAUUUUCUCUUAUCGAGAGUUGGGCGAGGGAUUGGCCUUUUGACCCCAACAGCAACCGGCCGUAAUACCAUUGUGAAAUGGGGCGCACUGCUUUUCGCGCCGAGACUGAUGUCUCAUAAGGCCGGUGCUAAUUCCAUCAGAUUGUGUCUGAGAGAUGAGAGAGGCAGUG
# [4] = tested on: metE aptamer A153G (RNA, riboswitch) GGCAUUUUCUCUUAUCGAGAGUUGGGCGAGGGAUUGGCCUUUUGACCCCAACAGCAACCGACCGUAAUACCAUUGUGAAAUGGGGCGCACUGCUUUUCGCGCCGAGACUGAUGUCUCAUAAGGCGCGGUGCUAAUUCCAUCAGAUUGUGUCUGAGAGAUGAGAGAGGCAGUG
# [5] = tested on: metE aptamer A153C (RNA, riboswitch) GGCAUUUUCUCUUAUCGAGAGUUGGGCGAGGGAUUGGCCUUUUGACCCCAACAGCAACCGACCGUAAUACCAUUGUGAAAUGGGGCGCACUGCUUUUCGCGCCGAGACUGAUGUCUCAUAAGGCCCGGUGCUAAUUCCAUCAGAUUGUGUCUGAGAGAUGAGAGAGGCAGUG
smiles,measurement,setting,value
C[S+](CC[C@H](N)C(=O)O)C[C@H]1O[C@@H](n2cnc3c(N)ncnc32)[C@H](O)[C@@H]1O (some centres unmarked),"KD,obs",[1],24000 ± 7000 nM
same,"KD,obs",[2],79 ± 8 nM
same,"KD,obs",[3],16000 ± 1000 nM
same,"KD,obs",[4],150 ± 20 nM
same,"KD,obs",[5],150 ± 20 nM

# — article PMC4624507 (2015)
